Consider 1 compound from patent US20030180723A1, “Cloning of novel gene sequences expressed and repressed during winter dormancy in the apical buds of tea ( Camellia sinensis L. (O.) Kuntze) bush” (priority 2001, published 2003).

The subject of the assay is dormant apical buds of tea bush. Description: Forced break of bud dormancy by GA3 on a winter-dormant tea bush. The format is in vivo, Camellia sinensis L. (O.) Kuntze. The settings on record: out of 20 buds; 5 μM in 5% ethanol, applied onto each dormant bud with a paint brush at least 4 times on the same day, December; bud length and perimeter as indicator of growth. On the procedure: Above Example 6 identified 4 differentially expressed genes cloned by us. To further correlate these differentially expressed genes with the phenomenon of dormancy, the dormant bush during winter month was forced to break bud dormancy using a plant growth regulator gibberrellic acid (hereinafter referred to GA3). GA3 was dissolved in 5% ethanol to yield a final concetration of 5 μM. The solution was applied onto each dormant bud with the help of a paint brush at least 4 times on the same day during the month of December. Bud length and its perimeter was recorded regularly as an indicator of its growth. […] These were termed as forced ND apical buds. These were collected and stored as mentioned in Example 1 and used for the purpose of RNA isolation to be used in northern analysis.

The structures appear in SMILES notation.

`C=C1C[C@]23C[C@@]1(O)CC[C@H]2[C@@]12C=C[C@H](O)[C@@](C)(C(=O)O1)[C@H]2[C@@H]3C(=O)O` [GA3, gibberrellic acid]: the “buds that showed increase in growth (dormancy break)” value is on record as 10 buds.
